The results in this text go back to patent publication US20260185118A1 (priority 2023, published 2026).

This assay deals with Diaphorina citri Kuwayama. The format is in vivo. The following applies: solution at 1 μg/L in n-hexane applied to citrus leaves, compared to solvent n-hexane, 40 min.

Take `C=C1CC/C=C(\C)CC[C@@H]2[C@@H]1CC2(C)C` [β-caryophyllene]: the “effect on Diaphorina citri Kuwayama selection preference” value is given as “significant repulsive effect”.
For (E)-β-farnesene, the “effect on Diaphorina citri Kuwayama selection preference” value is listed as “significant repulsive effect”.
